Measurements: US20230091047A1 (priority 2019, published 2023)

Legend:
[1] = in vitro; type: cell-based; conditions: human, HepG2 or HepG2.117 cells, 3-days incubation (unmarked values), ATPlite; mean value
Outline: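 Luminescent ATP quantitation served as the viability endpoint following a 3- or 4-day incubation with test compounds.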

[2] = system: HBV (HepG2.117 cell line, inducibly HBV producing); assay: Anti-HBV activity: intracellular HBV DNA by real-time PCR in HepG2.117 cells after 3 days of treatment; type: cell-based, hepatitis B virus; conditions: Hepatitis B virus, HepG2.117, 72 h, HepG2.117 cells, 3 days of treatment, intracellular HBV DNA by real-time PCR; mean value; read-out: EC50 (μM, mean value)
Outline: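 Readout is intracellular HBV DNA, measured by real-time PCR with HBV-specific primers and probe after 3 days of exposure to serial compound dilutions. Cells are the stable HepG2.117 line, where HBV replication is induced in the absence of doxycycline.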

SMILES | CC50 at 3 days [1] | EC50 [2]
COc1ccc(CNc2nc3c(c(=O)n2CC2CCOCC2)CCN(C(=O)c2ccc(Cl)c(Cl)c2)C3)cc1 [Compound C65, 7-(3,4-dichlorobenzoyl)-2-{[(4-methoxyphenyl)methyl]amino}-3-[(oxan-4-yl)methyl]-5,6,7,8-tetrahydropyrido[3,4-d]pyrimidin-4(3H)-one] | 37.8 µM | 2.72 µM
COc1ccc(CNc2nc3c(c(=O)n2C2CCN(S(C)(=O)=O)CC2)CCN(C(=O)c2ccc(Cl)c(Cl)c2)C3)cc1 [Compound C66, 7-(3,4-dichlorobenzoyl)-3-[1-(methanesulfonyl)piperidin-4-yl]-2-{[(4-methoxyphenyl)methyl]amino}-5,6,7,8-tetrahydropyrido[3,4-d]pyrimidin-4(3H)-one] | > 50 µM | 0.77 µM
COc1ccc(CNc2nc3c(c(=O)n2CC(C)C)CCN(C(=O)c2ccc(Cl)c(Cl)c2)C3)cc1 [Compound C67, 7-(3,4-dichlorobenzoyl)-2-{[(4-methoxyphenyl)methyl]amino}-3-(2-methylpropyl)-5,6,7,8-tetrahydropyrido[3,4-d]pyrimidin-4(3H)-one] | > 50 µM | 9.51 µM
COc1ccc(CNc2nc3c(c(=O)n2-c2cccnc2)CCN(C(=O)c2ccc(Cl)c(Cl)c2)C3)cc1 [Compound C68, 7-(3,4-dichlorobenzoyl)-2-{[(4-methoxyphenyl)methyl]amino}-3-(pyridin-3-yl)-5,6,7,8-tetrahydropyrido[3,4-d]pyrimidin-4(3H)-one] | 22.4 µM | 0.66 µM
COc1ccc(CNc2nc3c(c(=O)[nH]2)CCN(C(=O)c2ccc(Br)c(F)c2)C3)cc1 [Compound C69, 7-(4-bromo-3-fluorobenzoyl)-2-{[(4-methoxyphenyl)methyl]amino}-5,6,7,8-tetrahydropyrido[3,4-d]pyrimidin-4(3H)-one] | 21 µM | 10 µM
COc1ccc(CNc2nc3c(c(=O)n2C2CC2)CCN(C(=O)c2ccc(Cl)c(Cl)c2)C3)cc1 [Compound C70, 3-cyclopropyl-7-(3,4-dichlorobenzoyl)-2-{[(4-methoxyphenyl)methyl]amino}-5,6,7,8-tetrahydropyrido[3,4-d]pyrimidin-4(3H)-one] | 23.1 µM | 10.8 µM
CCCn1c(NCc2ccc(OC)cc2)nc2c(c1=O)CCN(C(=O)c1ccc(Cl)c(Cl)c1)C2 [Compound C71, 7-(3,4-dichlorobenzoyl)-2-{[(4-methoxyphenyl)methyl]amino}-3-propyl-5,6,7,8-tetrahydropyrido[3,4-d]pyrimidin-4(3H)-one] | > 50 µM | 7.04 µM
COc1ccc(CNc2nc3c(c(=O)n2C(C)C)CCN(C(=O)c2ccc(Cl)c(Cl)c2)C3)cc1 [Compound C72, 7-(3,4-dichlorobenzoyl)-2-{[(4-methoxyphenyl)methyl]amino}-3-(propan-2-yl)-5,6,7,8-tetrahydropyrido[3,4-d]pyrimidin-4(3H)-one] | 40 µM | 2.77 µM
COc1ccc(CNc2nc3c(c(=O)n2C2CCCC2)CCN(C(=O)c2ccc(Cl)c(Cl)c2)C3)cc1 [Compound C73, 3-cyclopentyl-7-(3,4-dichlorobenzoyl)-2-{[(4-methoxyphenyl)methyl]amino}-5,6,7,8-tetrahydropyrido[3,4-d]pyrimidin-4(3H)-one] | > 50 µM | 9.37 µM
CCOC(=O)c1cccc(-n2c(NCc3ccc(OC)cc3)nc3c(c2=O)CCN(C(=O)c2ccc(Cl)c(Cl)c2)C3)c1 [Compound C74, ethyl 3-[7-(3,4-dichlorobenzoyl)-2-{[(4-methoxyphenyl)methyl]amino}-4-oxo-5,6,7,8-tetrahydropyrido[3,4-d]pyrimidin-3(4H)-yl]benzoate] | > 50 µM | 1.43 µM
COc1ccc(CNc2nc3c(c(=O)n2-c2cccc(C(=O)O)c2)CCN(C(=O)c2ccc(Cl)c(Cl)c2)C3)cc1 [Compound C75, 3-[7-(3,4-dichlorobenzoyl)-2-{[(4-methoxyphenyl)methyl]amino}-4-oxo-5,6,7,8-tetrahydropyrido[3,4-d]pyrimidin-3(4H)-yl]benzoic acid] | > 50 µM | > 50 µM
COc1ccc(Cn2c(N)nc3c(c2=O)CCN(C(=O)c2ccc(Cl)c(Cl)c2)C3)cc1 [Compound C76, 2-amino-7-(3,4-dichlorobenzoyl)-3-[(4-methoxyphenyl)methyl]-5,6,7,8-tetrahydropyrido[3,4-d]pyrimidin-4(3H)-one] | 7.1 µM | 9.63 µM
COc1ccc(CNc2nc3c(c(=O)n2-c2ccc(F)c(C#N)c2)CCN(C(=O)c2ccc(Cl)c(Cl)c2)C3)cc1 [Compound C77, 5-[7-(3,4-dichlorobenzoyl)-2-{[(4-methoxyphenyl)methyl]amino}-4-oxo-5,6,7,8-tetrahydropyrido[3,4-d]pyrimidin-3(4H)-yl]-2-fluorobenzonitrile] | > 50 µM | 1.58 µM
COc1ccc(CNc2nc3c(c(=O)n2-c2ccccn2)CCN(C(=O)c2ccc(Cl)c(Cl)c2)C3)cc1 [Compound C78, 7-(3,4-dichlorobenzoyl)-2-{[(4-methoxyphenyl)methyl]amino}-3-(pyridin-2-yl)-5,6,7,8-tetrahydropyrido[3,4-d]pyrimidin-4(3H)-one] | 41.8 µM | 2.11 µM
COc1ccc(CNc2nc3c(c(=O)[nH]2)CCN(C(=O)c2cc4ccc(Cl)cc4[nH]2)C3)cc1 [Compound C79, 7-(6-chloro-1H-indole-2-carbonyl)-2-{[(4-methoxyphenyl)methyl]amino}-5,6,7,8-tetrahydropyrido[3,4-d]pyrimidin-4(3H)-one] | 37.5 µM | 2.32 µM
COc1ccc(CNc2nc3c(c(=O)[nH]2)CCN(C(=O)c2ccc(Br)c(Br)c2)C3)cc1 [Compound C80, 7-(3,4-dibromobenzoyl)-2-{[(4-methoxyphenyl)methyl]amino}-5,6,7,8-tetrahydropyrido[3,4-d]pyrimidin-4(3H)-one] | > 50 µM | 2.02 µM
COc1ccc(CNc2nc3c(c(=O)[nH]2)CCN(C(=O)c2ccc4occc4c2)C3)cc1 [Compound C81, 7-(1-benzofuran-5-carbonyl)-2-{[(4-methoxyphenyl)methyl]amino}-5,6,7,8-tetrahydropyrido[3,4-d]pyrimidin-4(3H)-one] | > 50 µM | 4.49 µM
COc1ccc(CNc2nc3c(c(=O)[nH]2)CCN(C(=O)c2ccc(C#N)c(Cl)c2)C3)cc1 [Compound C82, 2-chloro-4-[2-{[(4-methoxyphenyl)methyl]amino}-4-oxo-4,5,6,8-tetrahydropyrido[3,4-d]pyrimidine-7(3H)-carbonyl]benzonitrile] | > 50 µM | 23.4 µM
COc1ccc(CNc2nc3c(c(=O)n2C2CCCN(S(C)(=O)=O)C2)CCN(C(=O)c2ccc(Cl)c(Cl)c2)C3)cc1 (stereo not shown) [Compound C83, 7-(3,4-dichlorobenzoyl)-3-[1-(methanesulfonyl)piperidin-3-yl]-2-{[(4-methoxyphenyl)methyl]amino}-5,6,7,8-tetrahydropyrido[3,4-d]pyrimidin-4(3H)-one] | > 50 µM | 1.44 µM
COc1ccc(CNc2nc3c(c(=O)n2-c2ccc(S(C)(=O)=O)cc2)CCN(C(=O)c2ccc(Cl)c(Cl)c2)C3)cc1 [Compound C84, 7-(3,4-dichlorobenzoyl)-3-[4-(methanesulfonyl)phenyl]-2-{[(4-methoxyphenyl)methyl]amino}-5,6,7,8-tetrahydropyrido[3,4-d]pyrimidin-4(3H)-one] | > 50 µM | 0.57 µM
CC(C)Nc1nc2c(c(=O)n1-c1ccc(S(C)(=O)=O)cc1)CCN(C(=O)c1ccc(Cl)c(Cl)c1)C2 [Compound C85, 7-(3,4-dichlorobenzoyl)-3-[4-(methanesulfonyl)phenyl]-2-[(propan-2-yl)amino]-5,6,7,8-tetrahydropyrido[3,4-d]pyrimidin-4(3H)-one] | > 50 µM | 0.85 µM
COc1ccccc1-n1c(N[C@@H](C)C(F)(F)F)nc2c(c1=O)CCN(C(=O)c1ccc(Cl)c(Cl)c1)C2 [Compound C86, 7-(3,4-dichlorobenzoyl)-3-(2-methoxyphenyl)-2-{[(2S)-1,1,1-trifluoropropan-2-yl]amino}-5,6,7,8-tetrahydropyrido[3,4-d]pyrimidin-4(3H)-one] | 25.2 µM | 1.44 µM
COc1ccc(CNc2nc3c(c(=O)n2-c2cc(OC)cc(S(C)(=O)=O)c2)CCN(C(=O)c2ccc(Cl)c(Cl)c2)C3)cc1 [Compound C87, 7-(3,4-dichlorobenzoyl)-3-[3-(methanesulfonyl)-5-methoxyphenyl]-2-{[(4-methoxyphenyl)methyl]amino}-5,6,7,8-tetrahydropyrido[3,4-d]pyrimidin-4(3H)-one] | > 50 µM | 1.55 µM
COc1cc(-n2c(NC(C)C)nc3c(c2=O)CCN(C(=O)c2ccc(Cl)c(Cl)c2)C3)cc(S(C)(=O)=O)c1 [Compound C88, 7-(3,4-dichlorobenzoyl)-3-[3-(methanesulfonyl)-5-methoxyphenyl]-2-[(propan-2-yl)amino]-5,6,7,8-tetrahydropyrido[3,4-d]pyrimidin-4(3H)-one] | > 50 µM | 4.99 µM
C=CCNc1nc2c(c(=O)n1CC=C)CCN(C(=O)c1ccc(Cl)c(Cl)c1)C2 [Compound C89, 7-(3,4-dichlorobenzoyl)-3-(prop-2-en-1-yl)-2-[(prop-2-en-1-yl)amino]-5,6,7,8-tetrahydropyrido[3,4-d]pyrimidin-4(3H)-one] | > 50 µM | 8.76 µM
COc1ccc(CN(CCCO)c2nc3c(c(=O)[nH]2)CCN(C(=O)c2ccc(Cl)c(Cl)c2)C3)cc1 [Compound C90, 7-(3,4-dichlorobenzoyl)-2-{(3-hydroxypropyl)[(4-methoxyphenyl)methyl]amino}-5,6,7,8-tetrahydropyrido[3,4-d]pyrimidin-4(3H)-one] | 21.2 µM | 8 µM
